Source: US7312224B2, “Pyrimidine derivatives” (Merck Patent GmbH, priority 2001, dated 2007)
Counter-ions that a name gives are not always drawn.

Target: cGMP phosphodiesterase (PDE V) (Homo sapiens, UniProt O76074)
Experiment: Affinity to PDE V (IC50, inhibition of enzyme activity)
Assay type: biochemical
Conditions: concentration of the inhibitor needed to achieve 50% inhibition of the enzyme activity
Method: The biological activity of the compounds of the formula I can be determined by methods as described, for example, in WO 93/06104.
The affinity of the compounds according to the invention for cGMP and cAMP phosphodiesterase is determined by measuring their IC50 values (concentration of the inhibitor needed to achieve 50% inhibition of the enzyme activity).
The determinations can be carried out using enzymes isolated by known methods (for example W. J. Thompson et al., Biochem. 1971, 10, 311). The experiments can be carried out using a modified batch method of W. J. Thompson and M. M. Appleman (Biochem. 1979, 18 5228).

Structure (SMILES) | IC50 [nM]
COc1ccc(CNc2nc(-c3ccc(C(=O)O)cc3)nc3c2c2c(n3C(C)c3ccccc3)CCCC2)cc1Cl (stereo not shown) [Example 1, 4-[4-(3-chloro-4-methoxybenzylamino)-9-(1-phenylethyl)-6,7,8,9-tetrahydro-5H-1,3,9-triazafluoren-2-yl]benzoic acid] | 300

System: not given
Experiment: not given
Conditions: not given

Structure (SMILES) | melting point [°C]
COc1ccc(CNc2nc(-c3ccc(C(=O)O)cc3)nc3c2c2c(n3C(C)c3ccccc3)CCCC2)cc1Cl (stereo not shown) (as salt: potassium) [Example 1, 4-[4-(3-chloro-4-methoxybenzylamino)-9-(1-phenylethyl)-6,7,8,9-tetrahydro-5H-1,3,9-triazafluoren-2-yl]benzoic acid] | 179
CCn1c2ccccc2c2c(NCc3ccc4c(c3)OCO4)nc(-c3ccc(C(=O)O)cc3)nc21 (as salt: sodium) [Example 7, 4-[4-(3,4-methylenedioxybenzylamino)-9-ethyl-9H-1,3,9-triazafluoren-2-yl]benzoic acid] | > 250
COc1ccc(CNc2nc(CN3CCC(C(=O)O)CC3)nc3oc4c(c23)CCCC4)cc1Cl [Example 4, 1-[4-(3-chloro-4-methoxybenzylamino)-5,6,7,8-tetrahydrobenzo[4,5]furo[2,3-d]pyrimidin-2-ylmethyl]piperidine-4-carboxylic acid] | 233 to 235
COc1ccc(CNc2nc(-c3ccc(C(=O)O)cc3)nc3c2c2ccccc2n3C)cc1Cl (as salt: sodium) [Example 8, 4-[4-(3-chloro-4-methoxybenzylamino)-9-methyl-9H-1,3,9-triazafluoren-2-yl]benzoic acid] | > 250
COc1ccc(CNc2nc(CCCC(=O)O)nc3oc4c(c23)CCCC4)cc1Cl (as salt: salt) [Example 3, 4-[4-(3-chloro-4-methoxybenzylamino)-5,6,7,8-tetrahydrobenzo[4,5]furo[2,3-d]pyrimidin-2-yl]butyric acid] | 205
O=C(O)c1ccc(-c2nc(NCc3ccc4c(c3)OCO4)c3c4c(oc3n2)CCCC4)cc1 (as salt: salt) [Example 2, 4-[4-(3,4-methylenedioxybenzylamino)-5,6,7,8-tetrahydrobenzo[4,5]furo[2,3-d]pyrimidin-2-yl]benzoic acid] | 205
